{
  "source": "patent USRE48461E1",
  "about": "“Modulation of androgen receptor expression” (Ionis Pharmaceuticals, Inc., priority 2012, dated 2021)",
  "key": {"[1]": {"test_system": "AR mRNA", "test": "Dose-dependent antisense inhibition of human AR in HuVEC cells (electroporation, qRT-PCR RTS3559, IC50)", "format": "cell-based", "conditions": "HuVEC", "outline": "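HuVEC cells dosed with antisense oligonucleotides by electroporation and treated approximately 16 hours. AR mRNA quantified by real-time qPCR with primer probe set RTS3559 and normalised to total RNA by RIBOGREEN; IC50 from dose-response.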"}, "[2]": {"test_system": "AR mRNA", "test": "Antisense inhibition of human AR in HuVEC cells, single concentration (electroporation, qRT-PCR RTS3559)", "format": "cell-based", "outline": "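HuVEC cells electroporated with antisense oligonucleotides at a single concentration. AR mRNA quantified by qRT-PCR using human primer-probe set RTS3559 and normalised to total RNA content by RIBOGREEN.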"}, "[3]": {"conditions": "Table 33, electroporation, approximately 16 hours"}, "[4]": {"conditions": "500 nM ASO, electroporation, ~24 h, Table 1"}, "[5]": {"conditions": "Table 36, electroporation, approximately 16 hours"}, "[6]": {"conditions": "Table 34, electroporation, approximately 16 hours"}},
  "note": "Oligonucleotides are written 5' to 3', each unit as a sugar letter and its base; * is a phosphorothioate linkage, no mark a phosphodiester; rarer units and linkages stand in square brackets, end groups in braces. Plain capitals give the bases only. e = 2'-O-(2-methoxyethyl) (MOE); k = constrained ethyl (cEt); [5mC] = 5-methylcytosine; d = 2'-deoxy (DNA)",
  "data": [
    {"substance": "583919 (kG*kT*kA*dG*dT*d[5mC]*dG*d[5mC]*dG*dA*d[5mC]*dT*d[5mC]*kT*kG*kG; antisense) [compound 583919]", "values": [
      {"measurement": "percent inhibition of AR, 46.9 nM", "setting": "[1]; [3]", "result": 27, "unit": "%"},
      {"measurement": "percent inhibition of AR, 187.5 nM", "setting": "[1]; [3]", "result": 60, "unit": "%"},
      {"measurement": "percent inhibition of AR, 750.0 nM", "setting": "[1]; [3]", "result": 85, "unit": "%"},
      {"measurement": "percent inhibition of AR, 3000.0 nM", "setting": "[1]; [3]", "result": 91, "unit": "%"},
      {"measurement": "IC50", "setting": "[1]; [3]", "result": 140, "unit": "nM"},
      {"measurement": "% inhibition", "setting": "[2]; Table 21, 500 nM oligonucleotide, electroporation, approximately 24 hours, relative to untreated control", "result": 55, "unit": "%"}
    ]},
    {"substance": "549362 (k[5mC]*k[5mC]*k[5mC]*dG*dA*dA*dG*d[5mC]*dT*dG*dT*dT*d[5mC]*k[5mC]*k[5mC]*k[5mC]; antisense) [compound 549362]", "values": [
      {"measurement": "percent inhibition of AR", "setting": "[1]; 55.6 nM, ~16 h, Table 3", "result": 10, "unit": "%"},
      {"measurement": "percent inhibition of AR", "setting": "[1]; 166.7 nM, ~16 h, Table 3", "result": 23, "unit": "%"},
      {"measurement": "percent inhibition of AR", "setting": "[1]; 500.0 nM, ~16 h, Table 3", "result": 57, "unit": "%"},
      {"measurement": "percent inhibition of AR", "setting": "[1]; 1500.0 nM, ~16 h, Table 3", "result": 74, "unit": "%"},
      {"measurement": "IC50", "setting": "[1]; ~16 h, Table 3", "result": 447, "unit": "nM"},
      {"measurement": "% inhibition", "setting": "[2]; [4]", "result": 85, "unit": "%"}
    ]},
    {"substance": "549366 (k[5mC]*kT*kT*dG*d[5mC]*d[5mC]*dT*dG*d[5mC]*dG*d[5mC]*dT*dG*kT*k[5mC]*kG; antisense) [compound 549366]", "values": [
      {"measurement": "percent inhibition of AR", "setting": "[1]; 55.6 nM, ~16 h, Table 4", "result": 44, "unit": "%"},
      {"measurement": "percent inhibition of AR", "setting": "[1]; 166.7 nM, ~16 h, Table 4", "result": 58, "unit": "%"},
      {"measurement": "percent inhibition of AR", "setting": "[1]; 500.0 nM, ~16 h, Table 4", "result": 72, "unit": "%"},
      {"measurement": "percent inhibition of AR", "setting": "[1]; 1500.0 nM, ~16 h, Table 4", "result": 91, "unit": "%"},
      {"measurement": "IC50", "setting": "[1]; ~16 h, Table 4", "result": 129, "unit": "nM"},
      {"measurement": "% inhibition", "setting": "[2]; [4]", "result": 84, "unit": "%"}
    ]},
    {"substance": "584165 (kT*k[5mC]*kA*dA*dT*d[5mC]*dT*dA*dG*dA*dT*dA*d[5mC]*k[5mC]*kA*kT; antisense) [compound 584165]", "values": [
      {"measurement": "percent inhibition of AR, 46.9 nM", "setting": "[1]; [5]", "result": 12, "unit": "%"},
      {"measurement": "percent inhibition of AR, 187.5 nM", "setting": "[1]; [5]", "result": 34, "unit": "%"},
      {"measurement": "percent inhibition of AR, 750.0 nM", "setting": "[1]; [5]", "result": 66, "unit": "%"},
      {"measurement": "percent inhibition of AR, 3000.0 nM", "setting": "[1]; [5]", "result": 89, "unit": "%"},
      {"measurement": "IC50", "setting": "[1]; [5]", "result": 300, "unit": "nM"},
      {"measurement": "% inhibition", "setting": "[2]; Table 24, 1,000 nM oligonucleotide, electroporation, approximately 24 hours, relative to untreated control", "result": 70, "unit": "%"}
    ]},
    {"substance": "549360 (kG*kG*kT*d[5mC]*dG*dA*dA*dG*dT*dG*d[5mC]*d[5mC]*d[5mC]*k[5mC]*k[5mC]*kT; antisense) [compound 549360]", "values": [
      {"measurement": "percent inhibition of AR", "setting": "[1]; 55.6 nM, ~16 h, Table 3", "result": 44, "unit": "%"},
      {"measurement": "percent inhibition of AR", "setting": "[1]; 166.7 nM, ~16 h, Table 3", "result": 58, "unit": "%"},
      {"measurement": "percent inhibition of AR", "setting": "[1]; 500.0 nM, ~16 h, Table 3", "result": 79, "unit": "%"},
      {"measurement": "percent inhibition of AR", "setting": "[1]; 1500.0 nM, ~16 h, Table 3", "result": 83, "unit": "%"},
      {"measurement": "IC50", "setting": "[1]; ~16 h, Table 3", "result": 116, "unit": "nM"},
      {"measurement": "% inhibition", "setting": "[2]; [4]", "result": 89, "unit": "%"}
    ]},
    {"substance": "560099 (kG*kG*kT*dT*dG*dA*dT*dT*dT*dA*dA*dT*dG*kG*kT*kT) [compound 560099]", "values": [
      {"measurement": "percent inhibition of AR", "setting": "[1]; 31.25 nM, ~16 h, Table 6", "result": 13, "unit": "%"},
      {"measurement": "percent inhibition of AR", "setting": "[1]; 62.5 nM, ~16 h, Table 6", "result": 29, "unit": "%"},
      {"measurement": "percent inhibition of AR", "setting": "[1]; 125.0 nM, ~16 h, Table 6", "result": 58, "unit": "%"},
      {"measurement": "percent inhibition of AR", "setting": "[1]; 500.0 nM, ~16 h, Table 6", "result": 89, "unit": "%"},
      {"measurement": "percent inhibition of AR", "setting": "[1]; 1000.0 nM, ~16 h, Table 6", "result": 94, "unit": "%"},
      {"measurement": "IC50", "setting": "[1]; ~16 h, Table 6", "result": 100, "unit": "nM"},
      {"measurement": "% inhibition", "setting": "[2]; 500 nM ASO, ~24 h, Table 5", "result": 95, "unit": "%"}
    ]},
    {"substance": "560071 (eT*eG*eG*eT*eT*dG*dA*dT*dT*dT*dA*dA*dT*dG*dG*eT*eT*eG*e[5mC]*eA) [compound 560071]", "values": [
      {"measurement": "percent inhibition of AR", "setting": "[1]; 31.25 nM, ~16 h, Table 6", "result": 7, "unit": "%"},
      {"measurement": "percent inhibition of AR", "setting": "[1]; 62.5 nM, ~16 h, Table 6", "result": 0, "unit": "%"},
      {"measurement": "percent inhibition of AR", "setting": "[1]; 125.0 nM, ~16 h, Table 6", "result": 19, "unit": "%"},
      {"measurement": "percent inhibition of AR", "setting": "[1]; 500.0 nM, ~16 h, Table 6", "result": 57, "unit": "%"},
      {"measurement": "percent inhibition of AR", "setting": "[1]; 1000.0 nM, ~16 h, Table 6", "result": 76, "unit": "%"},
      {"measurement": "IC50", "setting": "[1]; ~16 h, Table 6", "result": 400, "unit": "nM"},
      {"measurement": "% inhibition", "setting": "[2]; 500 nM ASO, ~24 h, Table 5", "result": 73, "unit": "%"}
    ]},
    {"substance": "583998 (k[5mC]*kA*kT*dG*d[5mC]*d[5mC]*dG*d[5mC]*d[5mC]*dA*dG*dG*dG*kT*kA*k[5mC]; antisense) [compound 583998]", "values": [
      {"measurement": "percent inhibition of AR, 46.9 nM", "setting": "[1]; [6]", "result": 4, "unit": "%"},
      {"measurement": "percent inhibition of AR, 187.5 nM", "setting": "[1]; [6]", "result": 25, "unit": "%"},
      {"measurement": "percent inhibition of AR, 750.0 nM", "setting": "[1]; [6]", "result": 38, "unit": "%"},
      {"measurement": "percent inhibition of AR, 3000.0 nM", "setting": "[1]; [6]", "result": 70, "unit": "%"},
      {"measurement": "IC50", "setting": "[1]; [6]", "result": 890, "unit": "nM"},
      {"measurement": "% inhibition", "setting": "[2]; Table 22, 500 nM oligonucleotide, electroporation, approximately 24 hours, relative to untreated control", "result": 45, "unit": "%"}
    ]},
    {"substance": "569215 (antisense kT*kG*kG*dT*dT*dG*dA*dT*dT*dT*dA*dA*kT*kG*kG*eT) [compound 569215]", "values": [
      {"measurement": "percent inhibition of AR", "setting": "[1]; 31.25 nM, ~16 h, Table 14", "result": 12, "unit": "%"},
      {"measurement": "percent inhibition of AR", "setting": "[1]; 62.5 nM, ~16 h, Table 14", "result": 2, "unit": "%"},
      {"measurement": "percent inhibition of AR", "setting": "[1]; 125.0 nM, ~16 h, Table 14", "result": 26, "unit": "%"},
      {"measurement": "percent inhibition of AR", "setting": "[1]; 500.0 nM, ~16 h, Table 14", "result": 71, "unit": "%"},
      {"measurement": "percent inhibition of AR", "setting": "[1]; 1000.0 nM, ~16 h, Table 14", "result": 90, "unit": "%"},
      {"measurement": "IC50", "setting": "[1]; ~16 h, Table 14", "result": 234, "unit": "nM"},
      {"measurement": "% inhibition", "setting": "[2]; 1,000 nM ASO, ~24 h, Table 13", "result": 59, "unit": "%"}
    ]}
  ]
}
